target: T1, TLR7/NFKb HEK cells (Homo sapiens, UniProt Q9NYK1); assay: HEK Cell Assay (TLR7/NFKb reporter, Steady-Glo luciferase readout); type: cell-based; details: 30 min compound preincubation, then R*48 agonist for 5 hours, read-out: Potency
T1 construct: expressed in transfected cells; host or cells: HEK cells (TLR7/NFKb reporter line)
T1 sequence (Q9NYK1 27-1049): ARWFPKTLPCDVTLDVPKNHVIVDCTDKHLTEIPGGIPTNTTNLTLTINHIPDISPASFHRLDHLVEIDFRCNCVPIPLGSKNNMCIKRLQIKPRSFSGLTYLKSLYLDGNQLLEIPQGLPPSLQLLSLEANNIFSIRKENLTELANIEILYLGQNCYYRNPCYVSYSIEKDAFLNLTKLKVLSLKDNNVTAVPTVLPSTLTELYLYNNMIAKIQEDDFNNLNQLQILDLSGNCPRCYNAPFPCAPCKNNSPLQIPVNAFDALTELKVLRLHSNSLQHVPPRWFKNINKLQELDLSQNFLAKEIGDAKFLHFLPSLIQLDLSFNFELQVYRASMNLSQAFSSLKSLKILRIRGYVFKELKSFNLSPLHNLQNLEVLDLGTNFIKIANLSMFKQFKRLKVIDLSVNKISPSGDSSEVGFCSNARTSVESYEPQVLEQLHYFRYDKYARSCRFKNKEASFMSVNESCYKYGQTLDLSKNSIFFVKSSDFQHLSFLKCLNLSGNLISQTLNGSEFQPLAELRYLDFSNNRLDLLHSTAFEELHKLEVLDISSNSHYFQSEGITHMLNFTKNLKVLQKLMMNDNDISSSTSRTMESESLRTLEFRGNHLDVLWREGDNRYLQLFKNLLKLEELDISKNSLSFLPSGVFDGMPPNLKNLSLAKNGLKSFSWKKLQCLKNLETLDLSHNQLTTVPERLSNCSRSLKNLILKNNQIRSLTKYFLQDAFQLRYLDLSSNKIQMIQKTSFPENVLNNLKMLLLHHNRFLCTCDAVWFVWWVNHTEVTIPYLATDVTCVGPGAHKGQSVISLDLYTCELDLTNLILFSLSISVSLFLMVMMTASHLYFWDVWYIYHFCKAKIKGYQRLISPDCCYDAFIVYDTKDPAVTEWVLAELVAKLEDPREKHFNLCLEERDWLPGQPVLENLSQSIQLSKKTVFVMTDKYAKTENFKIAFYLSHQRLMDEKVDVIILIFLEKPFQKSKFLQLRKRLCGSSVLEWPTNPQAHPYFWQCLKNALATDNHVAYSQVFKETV
Outline: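 Steady-Glo luminescence after 5 h stimulation with R*48 agonist, following 30 min compound preincubation. Assay run in HEK cells carrying a TLR7/NFKb luciferase reporter, plated at 5000 cells/well and grown 24 h at 37° C (10% CO2) before treatment.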

| Compound | IC50 [nM] |
| --- | --- |
| C[C@H]1C[C@@H](NC2CCOC2)CN(c2ccnc3nccnc23)C1 (stereo partly drawn) [Compound 139, (3R,5S)-5-methyl-N-(oxolan-3-yl)-1-[pyrido[2,3-b]pyrazin-8-yl]piperidin-3-amine] | > 10000 |
| C[C@H]1C[C@@H](NC(=O)CNS(C)(=O)=O)CN(c2ccc(C#N)c3nccnc23)C1 [Compound 140, N-[(3R,5S)-1-(8-cyanoquinoxalin-5-yl)-5-methylpiperidin-3-yl]-2-methanesulfonamidoacetamide] | < 1000 |
| C[C@H]1C[C@@H](NC(=O)CNS(C)(=O)=O)CN(c2ccnc3nccnc23)C1 [Compound 141, 2-methanesulfonamido-N-[(3R,5S)-5-methyl-1-[pyrido[2,3-b]pyrazin-8-yl]piperidin-3-yl]acetamide] | > 10000 |
| C[C@H]1C[C@@H](NC(=O)CNC(C)(C)C)CN(c2ccc(C#N)c3nccnc23)C1 [Compound 142, 2-(tert-butylamino)-N-[(3R,5S)-1-(8-cyanoquinoxalin-5-yl)-5-methylpiperidin-3-yl]acetamide] | < 1000 |
| C[C@H]1C[C@@H](NC(=O)CNC(C)(C)C)CN(c2ccnc3nccnc23)C1 [Compound 143, 2-(tert-butylamino)-N-[(3R,5S)-5-methyl-1-[pyrido[2,3-b]pyrazin-8-yl]piperidin-3-yl]acetamide] | > 10000 |
| C[C@H]1C[C@@H](NC(=O)CN(C)CCO)CN(c2ccc(C#N)c3nccnc23)C1 [Compound 144, N-[(3R,5S)-1-(8-cyanoquinoxalin-5-yl)-5-methylpiperidin-3-yl]-2-[(2-hydroxyethyl)(methyl)amino]acetamide] | < 1000 |
| C[C@H]1C[C@@H](NC(=O)CN(C)CCO)CN(c2ccnc3nccnc23)C1 [Compound 145, 2-[(2-hydroxyethyl)(methyl)amino]-N-[(3R,5S)-5-methyl-1-[pyrido[2,3-b]pyrazin-8-yl]piperidin-3-yl]acetamide] | > 10000 |
| C[C@H]1C[C@@H](NC(=O)C2(CO)CC2)CN(c2ccc(C#N)c3nccnc23)C1 [Compound 162, N-[(3R,5S)-1-(8-cyanoquinoxalin-5-yl)-5-methylpiperidin-3-yl]-1-(hydroxymethyl)cyclopropane-1-carboxamide] | 1000 to 10000 |
| C[C@H]1C[C@@H](NC(=O)COC(C)(C)C)CN(c2ccc(C#N)c3nccnc23)C1 [Compound 163, 2-(tert-butoxy)-N-[(3R,5S)-1-(8-cyanoquinoxalin-5-yl)-5-methylpiperidin-3-yl]acetamide] | < 1000 |
| C[C@H]1C[C@@H](NC(=O)COC(C)(C)C)CN(c2ccnc3nccnc23)C1 [Compound 164, 2-(tert-butoxy)-N-[(3R,5S)-5-methyl-1-[pyrido[2,3-b]pyrazin-8-yl]piperidin-3-yl]acetamide] | > 10000 |
| C[C@H]1C[C@@H](NC(=O)C2CC2(F)F)CN(c2ccc(C#N)c3nccnc23)C1 (stereo partly drawn) [Compound 165, N-[(3R,5S)-1-(8-cyanoquinoxalin-5-yl)-5-methylpiperidin-3-yl]-2,2-difluorocyclopropane-1-carboxamide] | < 1000 |
| C[C@H]1C[C@@H](NC(=O)COCC2CCCO2)CN(c2ccc(C#N)c3nccnc23)C1 (stereo partly drawn) [Compound 166, N-[(3R,5S)-1-(8-cyanoquinoxalin-5-yl)-5-methylpiperidin-3-yl]-2-(oxolan-2-ylmethoxy)acetamide] | < 1000 |
| CC(C)C(C)C(=O)N[C@@H]1C[C@H](C)CN(c2ccc(C#N)c3nccnc23)C1 (stereo partly drawn) [Compound 167, N-[(3R,5S)-1-(8-cyanoquinoxalin-5-yl)-5-methylpiperidin-3-yl]-2,3-dimethylbutanamide] | < 1000 |
| CC(C)C(C)C(=O)N[C@@H]1C[C@H](C)CN(c2ccnc3nccnc23)C1 (stereo partly drawn) [Compound 168, 2,3-dimethyl-N-[(3R,5S)-5-methyl-1-[pyrido[2,3-b]pyrazin-8-yl]piperidin-3-yl]butanamide] | > 10000 |
| C[C@H]1C[C@@H](NC(=O)Cn2cccn2)CN(c2ccc(C#N)c3nccnc23)C1 [Compound 169, N-[(3R,5S)-1-(8-cyanoquinoxalin-5-yl)-5-methylpiperidin-3-yl]-2-(1H-pyrazol-1-yl)acetamide] | < 1000 |
| C[C@H]1C[C@@H](NC(=O)Cn2cccn2)CN(c2ccnc3nccnc23)C1 [Compound 170, N-[(3R,5S)-5-methyl-1-[pyrido[2,3-b]pyrazin-8-yl]piperidin-3-yl]-2-(1H-pyrazol-1-yl)acetamidw] | > 10000 |

| Compound | IC50 [nM] |
| --- | --- |
| C[C@H]1C[C@@H](NC(=O)C2CCCN2C)CN(c2ccc(C#N)c3nccnc23)C1 (stereo partly drawn) [Compound 171, N-[(3R,5S)-1-(8-cyanoquinoxalin-5-yl)-5-methylpiperidin-3-yl]-1-methylpyrrolidine-2-carboxamide] | < 1000 |
| C[C@H]1C[C@@H](NC(=O)C2CCCN2C)CN(c2ccnc3nccnc23)C1 (stereo partly drawn) [Compound 172, Methyl-N-[(3R,5S)-5-methyl-1-[pyrido[2,3-b]pyrazin-8-yl]piperidin-3-yl]pyrrolidine-2-carboxamide] | 1000 to 10000 |
| C[C@H]1C[C@@H](N)CN(c2ccc(C(N)=O)c3ncccc23)C1 [Compound 180, 5-[(3R,5S)-3-amino-5-methylpiperidin-1-yl]quinoline-8-carboxamide] | < 1000 |
| CC(C)[C@H](O)C(=O)N[C@@H]1C[C@H](C)CN(c2ccc(C(N)=O)c3ncccc23)C1 [Compound 181, 5-[(3R,5S)-3-[(2S)-2-hydroxy-3-methylbutanamido]-5-methylpiperidin-1-yl]quinoline-8-carboxamide] | > 10000 |
| C[C@H]1C[C@@H](NC(=O)CC(C)(C)C)CN(c2ccc(C(N)=O)c3ncccc23)C1 [Compound 182, 5-[(3R,5S)-3-(3,3-dimethylbutanamido)-5-methylpiperidin-1-yl]quinoline-8-carboxamide] | 1000 to 10000 |
| COCCN[C@@H]1C[C@H](C)CN(c2ccc(C(N)=O)c3ncccc23)C1 [Compound 183, 5-[(3R,5S)-3-[(2-methoxyethyl)amino]-5-methylpiperidin-1-yl]quinoline-8-carboxamide] | > 10000 |
| C[C@H]1C[C@@H](NC(=O)CN(C)C)CN(c2ccc(C(N)=O)c3ncccc23)C1 [Compound 186, 5-[(3R,5S)-3-[2-(dimethylamino)acetamido]-5-methylpiperidin-1-yl]quinoline-8-carboxamide] | > 10000 |
| COc1ccc(N2C[C@@H](C)C[C@@H](N)C2)c2cccnc12 [Compound 187, (3R,5S)-1-(8-methoxyquinolin-5-yl)-5-methylpiperidin-3-amine] | < 1000 |
| COc1ccc(N2C[C@@H](C)C[C@@H](NC(=O)[C@@H](O)C(C)C)C2)c2cccnc12 [Compound 188, (2S)-2-hydroxy-N-[(3R,5S)-1-(8-methoxyquinolin-5-yl)-5-methylpiperidin-3-yl]-3-methylbutanamide] | < 1000 |
| COc1ccc(N2C[C@@H](C)C[C@@H](NC(=O)CC(C)(C)C)C2)c2cccnc12 [Compound 189, N-[(3R,5S)-1-(8-methoxyquinolin-5-yl)-5-methylpiperidin-3-yl]-3,3-dimethylbutanamide] | 1000 to 10000 |
| COCCN[C@@H]1C[C@H](C)CN(c2ccc(OC)c3ncccc23)C1 [Compound 190, (3R,5S)—N-(2-methoxyethyl)-1-(8-methoxyquinolin-5-yl)-5-methylpiperidin-3-amine] | < 1000 |
| COc1ccc(N2C[C@@H](C)C[C@@H](NC(=O)CN(C)C)C2)c2cccnc12 [Compound 193, 2-(dimethylamino)-N-[(3R,5S)-1-(8-methoxyquinolin-5-yl)-5-methylpiperidin-3-yl]acetamide] | 1000 to 10000 |
| CC(C)[C@H](O)C(=O)N[C@@H]1C[C@H](C)CN(c2ccc(C(F)(F)F)c3ncccc23)C1 [Compound 194, (2S)-2-hydroxy-3-methyl-N-[(3R,5S)-5-methyl-1-[8-(trifluoromethyl)quinolin-5-yl]piperidin-3-yl]butanamide] | < 1000 |
| C[C@H]1C[C@@H](NC(=O)CC(C)(C)C)CN(c2ccc(C(F)(F)F)c3ncccc23)C1 [Compound 195, 3,3-dimethyl-N-[(3R,5S)-5-methyl-1-[8-(trifluoromethyl)quinolin-5-yl]piperidin-3-yl]butanamide] | < 1000 |
| COCCN[C@@H]1C[C@H](C)CN(c2ccc(C(F)(F)F)c3ncccc23)C1 [Compound 196, (3R,5S)—N-(2-methoxyethyl)-5-methyl-1-[8-(trifluoromethyl)quinolin-5-yl]piperidin-3-amine] | < 1000 |
